Assay results published in ChEMBL document CHEMBL1201862, “PubChem BioAssay data set” (2004).
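Where inhibition never reached the appropriate level, the endpoint shown equals the highest concentration tested. Otherwise, values were interpolated linearly from a five-concentration, 48-hour dose response in 96-well plates. Abbreviation: GI50, concentration required for 50% inhibition of growth.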 Activity calls are given as the source filed them. No stated cut-off is given here; in the data, active = GI50 up to about 1.1 µM and inactive = higher.

What was measured:
Experiment in all cases: NCI tumour cell line growth inhibition, 48 h
HCC 2998 = tested on: HCC 2998
NCI-H460 = tested on: NCI-H460
ACHN = tested on: ACHN
UACC-257 = tested on: UACC-257
TK-10 = tested on: TK-10
SK-MEL-2 = tested on: SK-MEL-2
NCI-H23 = tested on: NCI-H23
MDA-MB-435 = tested on: MDA-MB-435
CCRF-CEM = tested on: CCRF-CEM
OVCAR-3 = tested on: OVCAR-3
UACC-62 = tested on: UACC-62
KM12 = tested on: KM12
MDA-N = tested on: MDA-N
A549 = tested on: A549
SN12C = tested on: SN12C
COLO 205 = tested on: COLO 205
SK-MEL-28 = tested on: SK-MEL-28
SK-OV-3 = tested on: SK-OV-3
T47D = tested on: T47D

Measured: GI50

COc1cccc(CC2C(=O)N/C(=N\C(C)=O)N2C)c1OC(C)=O (stereo not drawn)
inactive: HCC 2998 > 100 µM | NCI-H460 > 100 µM | ACHN > 100 µM | UACC-257 > 100 µM | TK-10 > 100 µM | SK-MEL-2 > 100 µM | NCI-H23 > 100 µM | MDA-MB-435 > 100 µM | CCRF-CEM > 100 µM | OVCAR-3 > 100 µM | UACC-62 > 100 µM | KM12 > 100 µM | MDA-N > 100 µM | A549 > 100 µM | SN12C > 100 µM | COLO 205 > 100 µM | SK-MEL-28 39 µM | SK-OV-3 > 100 µM

COc1ccc(CNc2nc(NCc3ccc(OC)cc3)nc(N3CCOCC3)n2)cc1
inactive: NCI-H460 4.23 µM | ACHN 5.62 µM | UACC-257 5.22 µM | TK-10 3.4 µM | SK-MEL-2 > 100 µM | NCI-H23 3.91 µM | MDA-MB-435 2.02 µM | OVCAR-3 2.44 µM | UACC-62 3.58 µM | T47D 9.84 µM | KM12 2.34 µM | A549 7.13 µM | SN12C 5.37 µM | COLO 205 3.91 µM | SK-MEL-28 40.2 µM | SK-OV-3 8.83 µM

O=C(c1cccc2cc(O)ccc12)c1cn(CCN2CCOCC2)c2ccccc12
inactive: ACHN 33.7 µM | UACC-257 21.7 µM | TK-10 21.6 µM | SK-MEL-2 11 µM | NCI-H23 33.3 µM | CCRF-CEM 4.06 µM | UACC-62 17.7 µM | T47D 38.3 µM | MDA-N 25.2 µM | SN12C 31.8 µM | COLO 205 45.7 µM | SK-MEL-28 42.6 µM

COC(=O)CNC(=O)C(CSC(=O)OCC1c2ccccc2-c2ccccc21)NC(=O)CCC(NC(=O)OCC1c2ccccc2-c2ccccc21)C(=O)OC (stereo not drawn)
inactive: HCC 2998 21.2 µM | NCI-H460 24.4 µM | ACHN 55.1 µM | UACC-257 32.5 µM | TK-10 36.7 µM | SK-MEL-2 16.9 µM | NCI-H23 17.5 µM | MDA-MB-435 25.7 µM | CCRF-CEM 14 µM | OVCAR-3 18.1 µM | MDA-N 18.8 µM | A549 14.5 µM | SN12C > 100 µM | COLO 205 29.4 µM | SK-MEL-28 38.1 µM | SK-OV-3 30.3 µM

O=C(O)c1ccc(/N=N/c2cc(S(=O)(=O)O)c3cccnc3c2O)cc1
inactive: HCC 2998 > 100 µM | NCI-H460 > 100 µM | ACHN > 100 µM | UACC-257 > 100 µM | TK-10 > 100 µM | SK-MEL-2 > 100 µM | NCI-H23 > 100 µM | OVCAR-3 > 100 µM | KM12 > 100 µM | A549 > 100 µM | SN12C > 100 µM | COLO 205 > 100 µM | SK-MEL-28 > 100 µM | SK-OV-3 > 100 µM

N#CC(C#N)/N=N/c1ccc(-c2nc3ccccc3s2)cc1
inactive: ACHN 3.68 µM | UACC-257 3.1 µM | TK-10 3.98 µM | SK-MEL-2 4.73 µM | NCI-H23 2.93 µM | MDA-MB-435 5.6 µM | T47D 2.22 µM | MDA-N 4.93 µM | SN12C 2.78 µM | COLO 205 4.04 µM | SK-MEL-28 10.4 µM

O=C(NCCN1CCOCC1)c1ccc(I)cc1
inactive: HCC 2998 > 100 µM | NCI-H460 > 100 µM | ACHN > 100 µM | TK-10 > 100 µM | NCI-H23 > 100 µM | CCRF-CEM > 100 µM | OVCAR-3 > 100 µM | UACC-62 > 100 µM | A549 > 100 µM | SN12C > 100 µM | SK-MEL-28 > 100 µM | SK-OV-3 > 100 µM

N#Cc1ccc2[nH]c3c(c2c1)CC(=O)Nc1ccccc1-3 [PAULLONE 2]
inactive: HCC 2998 > 100 µM | NCI-H460 > 100 µM | ACHN > 100 µM | UACC-257 > 100 µM | TK-10 > 100 µM | SK-MEL-2 > 100 µM | NCI-H23 > 100 µM | MDA-MB-435 > 100 µM | CCRF-CEM > 100 µM | OVCAR-3 > 100 µM | UACC-62 > 100 µM | T47D > 100 µM | A549 > 100 µM | COLO 205 > 100 µM | SK-MEL-28 > 100 µM

Cc1c(CN)c(C)c(CN)c(C)c1CN
inactive: HCC 2998 > 100 µM | NCI-H460 > 100 µM | ACHN > 100 µM | UACC-257 > 100 µM | TK-10 > 100 µM | SK-MEL-2 > 100 µM | NCI-H23 27 µM | MDA-MB-435 > 100 µM | CCRF-CEM > 100 µM | KM12 > 100 µM | A549 > 100 µM | SN12C > 100 µM | COLO 205 > 100 µM | SK-MEL-28 > 100 µM
